Data on 1 compound can be found in patent publication US20200384014A1, “Pulsed Administration Of Inhaled Nitric Oxide For The Treatment Of Pulmonary Hypertension” (Bellerophon Pulse Technologies LLC, priority 2017, published 2020).

The subject of the test is systolic pulmonary arterial pressure (sPAP) in subjects with PH-COPD. Briefly: Phase 2 placebo-controlled clinical study of pulsed iNO in subjects with PH-COPD on LTOT (IK-7002-COPD-201; NCT01728220). To be noted: for Average Change in sPAP vs Baseline: PH-COPD subjects on LTOT, echocardiography. Details: Average Change in sPAP vs Baseline: unit not given beside the values. It is filed as in vivo, human. The text has this: This study was a Phase 2, placebo-controlled, double-blind, randomized, two-part, dose-confirming clinical study characterizing the pharmacodynamic effects of pulsed iNO versus placebo in subjects with PH-COPD on LTOT (IK-7002-COPD-201; NCT01728220). The primary outcome of this study was change in systolic pulmonary arterial pressure (sPAP) from baseline after treatment with iNO (measured by 2D transthoracic echocardiography with Doppler). The secondary outcome was the occurrence of a decrease ≥5 mm Hg of partial pressure of oxygen in arterial blood (PaO2) from baseline after treatment with iNO.
Subjects also had tricuspid regurgitation velocity (TRV)≥2.9 m/s as measured by echocardiogram, a post-bronchodilatory forced expiratory volume in 1 second/forced vital capacity (FEV1/FVC)<0.7 and a FEV1<60% predicted. All subjects were at least 40 years old and were former smokers with at least 10 pack-years of tobacco cigarette smoking before study entry. All subjects also had been receiving LTOT for at least 3 months for at least 10 hours per day.
PH-COPD subjects were administered pulsed iNO at a dose of 3, 10, 15, 30 or 75 mcg/IBW kg/hr for at least 20 minutes, or received pulsed placebo (99.999% N2) for at least 20 minutes. The doses of 3 and 10 mcg/kg IBW/hr were administered from a mini-cylinder having 2,440 ppm NO and the doses of 15, 30 and 75 mcg/kg IBW/hr were administered from a mini-cylinder having 4,880 ppm NO.
The NO delivery device delivered gas comprising NO in a pulsatile manner at the beginning of the patient's breath. The minimum pulse volume is limited and for lower doses, can require 1 or more breaths to be skipped to maintain a constant dose in mcg/kg IBW/hr.

Molecules are shown by their SMILES.

With `[N]=O` [iNO, nitric oxide], the “Average Change in sPAP vs Baseline” value runs as follows: (pulsed iNO 10 mcg/kg IBW/hr for at least 20 minutes, N=21) −4.4; (pulsed iNO 15 mcg/kg IBW/hr for at least 20 minutes, N=21) −2.4; (pulsed iNO 30 mcg/kg IBW/hr for at least 20 minutes, N=24) −4.5; (pulsed iNO 75 mcg/kg IBW/hr for at least 20 minutes, N=24) −4.3. The “Efficacy (decrease in sPAP), in words” value (pulsed iNO 3 mcg/kg IBW/hr) is recorded as “ineffective”; the “Efficacy (decrease in sPAP), in words” value (pulsed iNO 10 mcg/kg IBW/hr) is reported as “showed efficacy”; the “Efficacy (decrease in sPAP), in words” value (pulsed iNO 15 mcg/kg IBW/hr) is listed as “did not show efficacy”; the “Efficacy (decrease in sPAP), in words” value (pulsed iNO 30 mcg/kg IBW/hr) is recorded as “showed efficacy”; the “Efficacy (decrease in sPAP), in words” value (pulsed iNO 75 mcg/kg IBW/hr) is “showed efficacy”.
